Measurements reported in US5100907A, “Hydantoin esters” (Lonza, Inc., priority 1990, dated 1992).

Assays:
Staphylococcus species b = experiment: Preservative challenge test against Staphylococcus species b; type: cell-based; conditions: end of 14 day period
Experimental: Microbiological challenge tests were also conducted with the lauric and oleic esters (I), representing molecules having C12 and C18 aliphatic fatty acid chain length moieties, respectively.
These preservative challenge tests were used to determine the biocidal performance of these two esters (I) in aqueous solution and dispersion formulations inoculated with a given one of two test organisms, previously isolated from a contaminated calcium carbonate (CaCO3) dispersion, i.e. gram-positive bacteria, designated Staphylococcus species a and Staphylococcus species b, as compared to three known biocides or preservatives, designated as DANTOGARD (trademark), Tektamer 38 (1,2-dibromo-2,4-dicyanobutane) and Nuodex PMA-18.
The solution formulation was represented by the inclusion of the test sample as preservative system in deionized water, and the dispersion formulation was represented by the inclusion of the test sample as preservative system in a CaCO3 aqueous dispersion (identified as Hydrocarb 60), the latter typifying a dispersed pigment medium, e.g. as used in a paint or other industrial dispersion or slurry. The antimicrobial activity of the test samples was evaluated at individually selective concentrations.
All these liquid samples were stored at room temperature until the start of the tests. The test organisms were maintained or nutrient agar at 4° C. and subcultured in nutrient broth (Difco), and a 24 hour culture incubated at 35° C. was used for the testing over a challenge test time period of 14 days.
The test formulations were prepared per a standardized procedure, by placing 20 ml aliquots of the stored sample into sterile test tubes, and then adding 0.1 ml of a standardized 10^6 suspension of a 24 hour culture in nutrient broth. Plate counts were taken immediately to determine the initial level of the microbial population, and the containers were incubated at 20°-25° C. Plate counts were retaken at 1, 3, 7 and 14 days, with the final reductions being calculated from the 14 days results.

[1] = HLB determination (weighted average method); type: physicochemical
Description: Hydrophilic-Lipophilic Balance or HLB is a means of associating the hydrophilic and lipophilic characteristics between two surfactants. A "weighted average" method was used to determine the HLB of the esters (I), and by comparison of the precursor ester (Ia), in which two emulsifiers of known HLB values along with the test ester were incorporated in a mixture of mineral oil and water. Evaluation and HLB determination of each of a series of prepared emulsion samples were effected by visual inspection.
The HLB of the mixture "m" is calculated from the sum of the HLB contributions of each surfactant, "a", "b", "c", per Equation 2 which describes a system of oil, water, and three surfactants.
Given that [HLB]m, [HLB]a, and [HLB]b, are known, and the ideal amount of "a", "b", and "c" to prepare a perfect emulsion has been determined, then by rearrangement of Eq. 2, the HLB of "c" can be calculated by Equation 3.
To obtain the HLB of the test ester as surfactant "c", a series of formulations was prepared in which the known surfactant sorbitan monostearate (SMS) as "a" and the known surfactant POE 20 sorbitan monostearate (POE 20 SMS) as "b" were varied in amount (wt. %) relative to each other at a constant amount (1 wt. %) of "c", until an optimum emulsion was obtained. Different combinations of "a" and "b" were used to vary the HLB of "c", for emulsifying a 40:56 (wt. %) mixture of paraffin oil and distilled water (totaling 96 wt. %).
To prepare the emulsions, surfactants "a", "b", and "c", and the paraffin oil were combined in a 150 ml beaker and heated slowly with agitation to 70°-80° C. The value of "X" in each formulation was predetermined by rearranging Eq. 3 to solve for X, and then inserting into the equation various [HLB]c values for the test ester (i.e., 2, 3, 4, 5, 6 . . . ). The [HLB]c values chosen reflected a range that would likely contain the actual HLB of the test ester. Hot distilled water (70°-80° C.) was then slowly added with agitation. The total weight of all these reagents was 100 grams. The resulting emulsion was allowed to cool, with continued agitation, until the temperature dropped below 30° C.
A series of emulsions for each test was prepared, one at a time, and then examined as a set. Each sample within the series was evaluated and graded according to the quality of the emulsion by visual examination of droplet size.

[2] = Surface tension tests (cmc, Gibbs' Free Energy of Micellation); type: physicochemical
Experimental: Surface tension tests were conducted as to the relationship between the fatty acid aliphatic chain length, i.e. number of carbon atoms, in the esters (I), and their performance as surfactants. The length of the hydrophobic chain of a molecule is considered the major contributing factor to the critical micelle concentration (cmc) value of a surfactant. This value is obtained from surface tension measurement data. The lower the cmc, the more readily the material will form micelles.
The Gibbs' Free Energy of Micellation (ΔG°cmc) and the ΔG°cmc per --CH2 -- can be determined if the cmc is known.
The ΔG°cmc is a calculated value obtained by Equation 1.
ΔG°cmc =2.303RT(log cmc-log[water]) (Eq. 1)
The ΔG°cmc per --CH2 -- value is obtained from the slope of the straight line curve formed from a plot of ΔG°cmc versus the number of carbon atoms in the lipophilic chain.
The cmc values were based on surface tension tests conducted with a tensiometer (Cenco-DuNoug Precision Model #70535, direct reading model) to determine the upward surface tension at the liquid-air surface of the test ester/water solution. The methods used to calibrate the tensiometer, calculate the "correction factor" (used to correct for the difference between the apparent and true surface tension), and collect data, were conducted as described in the manual for the instrument. Sodium lauryl sulfate (SLS) and distilled water were used as reference samples.
On completing data collection, plots of the surface tension (dynes) versus -log of the concentration (mols/liter) were prepared, using only the "corrected" surface tension value, obtained by applying the noted "correction factor" in each case. The […] was found by multiplying the "apparent" surface tension by a calculated correction factor.
The critical micelle concentration (cmc) for each sample was determined by locating the point in the curve where the surface tension first begins to level off, per a known procedure.

[3] = Solubilities of esters in typical solvents / appearance of samples in water; type: physicochemical; conditions: 25° C.
[4] = among esters (I) examined, Table 6

Row | SMILES | effectiveness as preservative (Staphylococcus species b; water) | Average HLB [1] | HLB Range [1] | surface active properties [2] | Solubility in isopropyl alcohol [3] | Solubility in mineral oil [3] | effectiveness as preservative (Staphylococcus species b; calcium carbonate aqueous dispersions) | cmc, relative rank [2, 4] | ΔG°cmc, relative rank [2, 4] | ΔG°cmc (Gibbs' Free Energy of Micellation) ([2]; calculated from cmc by Eq. 1, T=298° K.) [kJ/mol] | cmc (critical micelle concentration) ([2]; ester/water solution)
1 | CCCCCCCCCCCC(=O)OCCN1C(=O)N(CO)C(=O)C1(C)C [Methylolated Lauric Ester, 2-(3-hydroxymethyl-5,5-dimethyl-1,3-diazacyclopentane-2,4-dion-1-yl)-ethylester of lauric acid] | effective as preservatives in water | 12.8 | 12-14 | particularly favorable surface active properties | S (>10 g/100 g Solvent) | S (>10 g/100 g Solvent) | – | – | – | – | –
2 | CCCCCCCC/C=C\CCCCCCCC(=O)OCCN1C(=O)N(CO)C(=O)C1(C)C [Methylolated Oleic Ester, 2-(3-hydroxymethyl-5,5-dimethyl-1,3-diazacyclopentane-2,4-dion-1-yl)-ethylester of oleic acid] | effective as preservatives in water | 15.0 | 14-16 | particularly favorable surface active properties | S (>10 g/100 g Solvent) | S (>10 g/100 g Solvent) | effective as a preservative in calcium carbonate aqueous dispersions | the lowest cmc values | the lowest ΔG°cmc values | -29.13 | 4.0 × 10^-4 mol dm^-3
